This passage reports IC50 results from ChEMBL document CHEMBL4334508, “Oleanolic Acid Derivatives as Potential Inhibitors of HIV-1 Protease” (J Nat Prod, 2019).

Structures are written as SMILES. A value given as a limit tells only on which side of the number the result lay.

Sequence of Protease (Q9YQ12 whole entry): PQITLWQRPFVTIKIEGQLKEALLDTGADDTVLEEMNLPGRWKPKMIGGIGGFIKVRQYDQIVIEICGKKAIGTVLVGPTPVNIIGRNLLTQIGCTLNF

This assay concerns the target Protease (Human immunodeficiency virus 1, UniProt Q9YQ12). Description: Inhibition of HIV1 protease expressed in Escherichia coli using Abz-Ala-Arg-Val-Nle-Tyr(NO2)-Glu-Ala-Nle-NH2 peptide as substrate by FRET assay.
One may read the IC50 as the concentration at which inhibition is half-maximal. High values mean weaker potency, low ones greater potency. For the compound `CC(C)[C@H](NC(=O)CCCCCNC(=O)[C@]12CCC(C)(C)C[C@H]1C1=CC[C@@H]3[C@@]4(C)CC[C@H](OC(=O)c5ccccc5)C(C)(C)[C@@H]4CC[C@@]3(C)[C@]1(C)CC2)C(=O)O`, the concentration for half-maximal inhibition (IC50) is greater than 50 µM.
Take `CCCC(=O)O[C@H]1CC[C@]2(C)[C@H]3CC=C4[C@@H]5CC(C)(C)CC[C@]5(C(=O)NCCCC(=O)N[C@H](C(=O)O)C(C)C)CC[C@@]4(C)[C@]3(C)CC[C@H]2C1(C)C`: the IC50 was greater than 50 µM.
`CC(C)[C@H](NC(=O)CCCCCCCCCCNC(=O)[C@]12CCC(C)(C)C[C@H]1C1=CC[C@@H]3[C@@]4(C)CC[C@H](OC(=O)CCC(=O)O)C(C)(C)[C@@H]4CC[C@@]3(C)[C@]1(C)CC2)C(=O)O` had an IC50 greater than 50 µM.
For `CC(C)[C@H](NC(=O)CCCNC(=O)[C@]12CCC(C)(C)C[C@H]1C1=CC[C@@H]3[C@@]4(C)CC[C@H](OC(=O)CCC(=O)O)C(C)(C)[C@@H]4CC[C@@]3(C)[C@]1(C)CC2)C(=O)O`, 41.5 µM corresponded to half-maximal inhibition (IC50).
In turn, `CC(=O)O[C@H]1CC[C@]2(C)[C@H]3CC=C4[C@@H]5CC(C)(C)CC[C@]5(C(=O)NCCCCCC(=O)N[C@H](C(=O)O)C(C)C)CC[C@@]4(C)[C@]3(C)CC[C@H]2C1(C)C` displayed a half-maximal inhibitory concentration (IC50) of 30.3 µM.
On to `CCCCCCCCCCCC(=O)O[C@H]1CC[C@]2(C)[C@H]3CC=C4[C@@H]5CC(C)(C)CC[C@]5(C(=O)NCCCC(=O)N[C@H](C(=O)O)C(C)C)CC[C@@]4(C)[C@]3(C)CC[C@H]2C1(C)C`, for which the IC50 was greater than 50 µM.
`CC(C)[C@H](NC(=O)CCCCCNC(=O)[C@]12CCC(C)(C)C[C@H]1C1=CC[C@@H]3[C@@]4(C)CC[C@H](OC(=O)CCCC(=O)O)C(C)(C)[C@@H]4CC[C@@]3(C)[C@]1(C)CC2)C(=O)O` displayed a concentration for half-maximal inhibition (IC50) of 17.9 µM.
Take `CC(C)[C@H](NC(=O)CCCCCNC(=O)[C@]12CCC(C)(C)C[C@H]1C1=CC[C@@H]3[C@@]4(C)CC[C@H](OC(=O)c5ccccc5C(=O)O)C(C)(C)[C@@H]4CC[C@@]3(C)[C@]1(C)CC2)C(=O)O`: the midpoint of inhibition, the IC50, lay at 0.59 µM.
`CC(C)[C@H](NC(=O)CCCNC(=O)[C@]12CCC(C)(C)C[C@H]1C1=CC[C@@H]3[C@@]4(C)CC[C@H](OC(=O)CCCC(=O)O)C(C)(C)[C@@H]4CC[C@@]3(C)[C@]1(C)CC2)C(=O)O`: the half-maximal inhibitory concentration (IC50) turned out to be 19.8 µM.
`CC(C)[C@H](NC(=O)CCCCCCCCCCNC(=O)[C@]12CCC(C)(C)C[C@H]1C1=CC[C@@H]3[C@@]4(C)CC[C@H](OC(=O)c5ccccc5)C(C)(C)[C@@H]4CC[C@@]3(C)[C@]1(C)CC2)C(=O)O` registered an IC50 greater than 50 µM.
`CC(C)[C@H](NC(=O)CCCNC(=O)[C@]12CCC(C)(C)C[C@H]1C1=CC[C@@H]3[C@@]4(C)CC[C@H](OC(=O)CC(C)(C)CC(=O)O)C(C)(C)[C@@H]4CC[C@@]3(C)[C@]1(C)CC2)C(=O)O` yielded an IC50 of 46.3 µM.
As for `CCCCCC(=O)O[C@H]1CC[C@]2(C)[C@H]3CC=C4[C@@H]5CC(C)(C)CC[C@]5(C(=O)NCCCC(=O)N[C@H](C(=O)O)C(C)C)CC[C@@]4(C)[C@]3(C)CC[C@H]2C1(C)C`, the concentration for half-maximal inhibition (IC50) is greater than 50 µM.
As for `CCCCCC(=O)O[C@H]1CC[C@]2(C)[C@H]3CC=C4[C@@H]5CC(C)(C)CC[C@]5(C(=O)NCCCCCCCCCCC(=O)N[C@H](C(=O)O)C(C)C)CC[C@@]4(C)[C@]3(C)CC[C@H]2C1(C)C`, the figure is greater than 50 µM; as for `CCC(=O)O[C@H]1CC[C@]2(C)[C@H]3CC=C4[C@@H]5CC(C)(C)CC[C@]5(C(=O)NCCCCCCCCCCC(=O)N[C@H](C(=O)O)C(C)C)CC[C@@]4(C)[C@]3(C)CC[C@H]2C1(C)C`, greater than 50 µM.
Compound `CC(C)[C@H](NC(=O)CCCNC(=O)[C@]12CCC(C)(C)C[C@H]1C1=CC[C@@H]3[C@@]4(C)CC[C@H](OC(=O)c5ccccc5)C(C)(C)[C@@H]4CC[C@@]3(C)[C@]1(C)CC2)C(=O)O` yielded an IC50 greater than 50 µM.
Take `CC(C)[C@H](NC(=O)CCCCCCCCCCNC(=O)[C@]12CCC(C)(C)C[C@H]1C1=CC[C@@H]3[C@@]4(C)CC[C@H](OC(=O)c5ccccc5C(=O)O)C(C)(C)[C@@H]4CC[C@@]3(C)[C@]1(C)CC2)C(=O)O`: the half-inhibitory concentration (IC50) came to 1.2 µM.
Compound `CCCCCCCCCCCC(=O)O[C@H]1CC[C@]2(C)[C@H]3CC=C4[C@@H]5CC(C)(C)CC[C@]5(C(=O)NCCCCCC(=O)N[C@H](C(=O)O)C(C)C)CC[C@@]4(C)[C@]3(C)CC[C@H]2C1(C)C` gave a 50% inhibitory concentration (IC50) greater than 50 µM.
The compound `CCCCCC(=O)O[C@H]1CC[C@]2(C)[C@H]3CC=C4[C@@H]5CC(C)(C)CC[C@]5(C(=O)NCCCCCC(=O)N[C@H](C(=O)O)C(C)C)CC[C@@]4(C)[C@]3(C)CC[C@H]2C1(C)C` showed an IC50 greater than 50 µM.
Take `CC(C)[C@H](NC(=O)CCCCCCCCCCNC(=O)[C@]12CCC(C)(C)C[C@H]1C1=CC[C@@H]3[C@@]4(C)CC[C@H](OC(=O)CC(C)(C)CC(=O)O)C(C)(C)[C@@H]4CC[C@@]3(C)[C@]1(C)CC2)C(=O)O`: the IC50 was greater than 50 µM.
In the case of `CC(C)[C@H](NC(=O)CCCCCNC(=O)[C@]12CCC(C)(C)C[C@H]1C1=CC[C@@H]3[C@@]4(C)CC[C@H](OC(=O)CCC(=O)O)C(C)(C)[C@@H]4CC[C@@]3(C)[C@]1(C)CC2)C(=O)O`, the half-maximal inhibitory concentration (IC50) turned out to be 9.6 µM. That is a single-digit micromolar value.
Consider `CC(=O)O[C@H]1CC[C@]2(C)[C@H]3CC=C4[C@@H]5CC(C)(C)CC[C@]5(C(=O)NCCCCCCCCCCC(=O)N[C@H](C(=O)O)C(C)C)CC[C@@]4(C)[C@]3(C)CC[C@H]2C1(C)C`, for which the IC50 is greater than 50 µM.
The compound `CCCC(=O)O[C@H]1CC[C@]2(C)[C@H]3CC=C4[C@@H]5CC(C)(C)CC[C@]5(C(=O)NCCCCCC(=O)N[C@H](C(=O)O)C(C)C)CC[C@@]4(C)[C@]3(C)CC[C@H]2C1(C)C` registered an IC50 greater than 50 µM.
As for `CC(C)[C@H](NC(=O)CCCCCNC(=O)[C@]12CCC(C)(C)C[C@H]1C1=CC[C@@H]3[C@@]4(C)CC[C@H](OC(=O)CC(C)(C)CC(=O)O)C(C)(C)[C@@H]4CC[C@@]3(C)[C@]1(C)CC2)C(=O)O`, the concentration for half-maximal inhibition (IC50) was found to be 23.2 µM.
Consider `CC(C)[C@H](NC(=O)CCCCCCCCCCNC(=O)[C@]12CCC(C)(C)C[C@H]1C1=CC[C@@H]3[C@@]4(C)CC[C@H](OC(=O)CCCC(=O)O)C(C)(C)[C@@H]4CC[C@@]3(C)[C@]1(C)CC2)C(=O)O`, for which the 50% inhibitory concentration (IC50) was greater than 50 µM.
For `CCC(=O)O[C@H]1CC[C@]2(C)[C@H]3CC=C4[C@@H]5CC(C)(C)CC[C@]5(C(=O)NCCCCCC(=O)N[C@H](C(=O)O)C(C)C)CC[C@@]4(C)[C@]3(C)CC[C@H]2C1(C)C`, the IC50 was greater than 50 µM.
As for `CCCC(=O)O[C@H]1CC[C@]2(C)[C@H]3CC=C4[C@@H]5CC(C)(C)CC[C@]5(C(=O)NCCCCCCCCCCC(=O)N[C@H](C(=O)O)C(C)C)CC[C@@]4(C)[C@]3(C)CC[C@H]2C1(C)C`, the figure is greater than 50 µM; as for `CCCCCCCCCCCC(=O)O[C@H]1CC[C@]2(C)[C@H]3CC=C4[C@@H]5CC(C)(C)CC[C@]5(C(=O)NCCCCCCCCCCC(=O)N[C@H](C(=O)O)C(C)C)CC[C@@]4(C)[C@]3(C)CC[C@H]2C1(C)C`, greater than 50 µM; as for `CC(=O)N[C@H](C(=O)N[C@H](C(=O)N[C@@H](CC(C)C)[C@@H](O)CC(=O)N[C@@H](C)C(=O)N[C@@H](CC(C)C)[C@@H](O)CC(=O)O)C(C)C)C(C)C` [ACETYLPEPSTATIN], 0.24 µM.
